Test results as given in patent US20220340566A1, “BENZYL AMINE-CONTAINING 5,6-HETEROAROMATIC COMPOUNDS USEFUL AGAINST MYCOBACTERIAL INFECTION” (priority 2019, published 2022).

How the values were obtained:
[1] = Metabolic stability test in pooled human liver microsomes; type: in vitro ADME; conditions: human liver microsomes 0.5 mg protein/mL, 1 mmol/L NADPH, 37° C., 30 minutes
Method in brief: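 Remaining-rate readout: parent compound left after 30 min versus 0 min (set as 100%), measured by LC/MS/MS or SPE/MS. Oxidative reaction ran at 37° C. with 1 mmol/L NADPH, 0.5 mg protein/mL pooled human microsomes, 50 mmol/L Tris-HCl pH 7.4 buffer.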

[2] = tested on: Mycobacterium avium ATCC700898; experiment: Determination of IC85 against M. avium (resazurin fluorescence); type: cell-based; conditions: Mycobacterium avium, ATCC700898, M. avium ATCC700898, CAMHB medium, 37° C., 3 days incubation then resazurin, fluorescence one day later; read-out: IC85

| SMILES | MS_h_% (remaining amount of compound after reaction, 0 minute = 100%) [1] [%] | IC85 [2] [nM] |
| --- | --- | --- |
| CCc1nc2ccc(Cl)cn2c1C(=O)NCc1ccc(N2CCN(c3ccc(OC(F)(F)F)cc3)C3(CCCC3)C2)c(F)c1 [Compound I-2-16] | 58.2 | 86 |
| Cc1nc2ccc(Cl)cn2c1C(=O)NCc1ccc(N2C[C@H](C)N(c3ccc(OC(F)(F)F)cc3)C[C@H]2C)c(F)c1 [Compound I-1-40] | 89 | 22 |
| CCc1nc2cc(F)ccn2c1C(=O)NCc1ccc(N2CCN(c3ccc(C(F)(F)F)cn3)[C@@H](C)C2)c(F)c1.Cl [Compound I-1-113] | 79 | 4.8 |
| Cc1nc2ccc(Cl)cn2c1C(=O)NCc1ccc(N2CCC(c3ccc(OC(F)(F)F)cc3)CC2)c(F)c1.Cl [Compound I-1-63] | 95 | 12 |
| Cc1cn2c(C(=O)NCc3ccc(N4CCN(c5ccc(OC(F)(F)F)cc5)[C@@H](C)C4)c(F)c3)c(C)nc2s1 [Compound I-3-32] | 72.6 | 820 |
| CCc1nc2cc(F)ccn2c1C(=O)NCc1ccc(N2CCN(c3ccc(OC(F)(F)F)cc3)[C@@H](C)C2)c(F)c1F.Cl [Compound I-1-96] | 90 | 11 |
| Cc1cn2c(C(=O)NCc3ccc(C4CCN(c5ccc(OC(F)(F)F)cc5)CC4)c(F)c3)c(C)nc2s1 [Compound I-3-31] | 73.9 | 330 |
| CCc1nc2ccc(Cl)cn2c1C(=O)NCc1ccc(C2CCN(c3ccc(OC(F)(F)F)cc3)CC2)c(F)c1 [Compound I-1-20] | 83 | 33 |
| Cc1nc2cc(F)ccn2c1C(=O)NCc1ccc(N2CCN(c3ccc(OC(F)(F)F)cc3)[C@@H](C)C2)c(F)c1 [Compound I-1-46] | 96 | 2.6 |
| Cc1nc2ccc(F)cn2c1C(=O)NCc1ccc(N2CCN(c3ccc(OC(F)(F)F)cc3)[C@@H](C)C2)c(F)c1 [Compound I-1-26] | 93 | 15 |
| COc1ccn2nc(C)c(C(=O)NCc3ccc(N4CCC(c5ccc(OC(F)(F)F)cc5)CC4)c(Cl)c3)c2c1.Cl [Compound I-1-128] | 85 | 18 |
| CCc1nc2ccc(Cl)cn2c1C(=O)NCc1ccc(C2CCN(c3ccc(OCC4CC4)cn3)CC2)c(F)c1.Cl [Compound I-1-77] | 59 | 22 |
| Cc1cn2c(C(=O)NCc3ccc(N4CCN(c5ccc(C(F)(F)F)cn5)CC4)c(C(F)(F)F)c3)c(C)nc2cc1Cl [Compound I-2-7] | 79.3 | 590 |
| Cc1nc2ccc(Cl)cn2c1C(=O)NCc1ccc(N2CCN(c3ccc(OC(F)(F)F)cc3)C[C@H]2C)c(F)c1 [Compound I-1-37] | 76 | 36 |
| CC1=CN2C(=NC(C)C2C(=O)NCc2ccc3c(c2)OCCO3)C=C1 (stereo not drawn) [Compound I-3-38] | 67.7 | 860 |
| COc1ccn2c(C(=O)NCc3ccc(N4CCN(c5ccc(OC(F)(F)F)cc5)[C@@H](C)C4)c(F)c3)c(C)nc2c1 [Compound I-2-2] | 97.7 | 370 |
| CCc1nc2ccc(Cl)cn2c1C(=O)NCc1ccc(-c2cccc(OC(F)(F)F)c2)c(F)c1 [Compound I-3-2] | 97.7 | 2.3 |
| Cc1ccn2c(C(=O)NCc3ccc(N4CCN(C5CN(CC(F)(F)F)C5)[C@@H](C)C4)c(F)c3)c(C)nc2c1 [Compound I-3-26] | 77 | 960 |
| CCc1nc2cc(F)ccn2c1C(=O)NCc1ccc(N2CCN(c3ccc(OC(C)C)cc3)[C@@H](C)C2)c(F)c1.Cl [Compound I-1-111] | 88 | 7.1 |
| Cc1nn2ccc(Br)cc2c1C(=O)NCc1ccc(N2CCN(c3ccc(OC(F)(F)F)cc3)[C@@H](C)C2)c(F)c1.Cl [Compound I-1-122] | 81 | 66 |
| CCc1nc2ccc(Cl)cn2c1C(=O)NCc1ccc(N2CCN(c3ccc(OC(F)(F)F)cc3)C(C)(C)C2)c(F)c1 [Compound I-1-32] | 62 | 9.1 |
| Cc1nc2ccc(Br)cn2c1C(=O)NCc1ccc(N2CCC(c3ccc(F)cc3)CC2)cc1 [Compound I-3-37] | 68 | 16 |
| CCc1nc2cc(F)ccn2c1C(=O)NCc1ccc(N2CCN(c3ccc(OCC(F)(F)F)cc3)[C@@H](C)C2)c(F)c1.Cl [Compound I-1-115] | 69 | 4.6 |
| Cc1nc2ccc(Cl)cn2c1C(=O)NCc1ccc(N2CCC(c3ccc(OC(F)(F)F)cc3)CC2)cc1 [Compound I-3-27] | 75.5 | 12 |
| Cc1ccn2c(C(=O)NCc3ccc(N4CCN(c5ccc(OC(F)(F)F)cc5)[C@@H](C)C4)cc3)c(C)nc2c1 [Compound I-3-28] | 75.4 | 36 |
| Cc1ccc2nc(Cl)c(C(=O)NCc3ccc(N4CCN(c5ccc(OC(F)(F)F)cc5)[C@@H](C)C4)c(F)c3)n2c1.Cl [Compound I-1-57] | 84 | 3.6 |
| Cc1cn2c(C(=O)NCc3ccc(N4CCN(c5ccc(OC(F)(F)F)cc5)[C@@H](C)C4)c(Cl)c3)c(C)nc2s1.Cl [Compound I-3-29] | 75.1 | 61 |
| Cc1ccn2c(C(=O)NCc3ccc(C4CCN(c5ccc(OC(F)(F)F)cc5F)CC4)c(F)c3)c(C)nc2c1 [Compound I-1-22] | 87 | 28 |
| CCc1nc2cc(C)c(Cl)cn2c1C(=O)NCc1ccc(N2CCN(c3ccc(OC(F)(F)F)cc3)[C@@H](C)C2)c(F)c1 [Compound I-1-48] | 69 | 35 |
| Cc1nc2cc(F)ccn2c1C(=O)NCc1ccc(N2CCC(c3ccc(OC(F)(F)F)cc3)CC2)c(F)c1 [Compound I-2-1] | 106 | 16 |
